In ChEMBL document CHEMBL1150318, “Discovery of a novel, orally active himbacine-based thrombin receptor antagonist (SCH 530348) with potent antiplatelet activity” (J Med Chem, 2008):
The source made the active and inactive calls. No cut-off for these calls is given here.

Key:
Platelet [1] = assay: Ex vivo inhibition of haTRAP-induced platelet aggregation in cynomolgus monkey at 1 mg/kg after >24 hrs by impedance aggregometry; type: functional; settings: Macaca fascicularis
[2] = AUC (0 to 24 hrs) in cynomolgus monkey at 1 mg/kg, po after >24 hrs; type: ADME, organism-based, Macaca fascicularis; set-up: time < 24 hr, dose 1 mg/kg, route oral; settings: plasma
[3] = Cmax in cynomolgus monkey at 1 mg/kg, po after >24 hrs; type: ADME, organism-based, Macaca fascicularis; set-up: dose 1 mg/kg, route oral; settings: in vivo
[4] = target: T1, Proteinase-activated receptor 1 (Homo sapiens, UniProt P25116); assay: Displacement of [3H]haTRAP from PAR1 in human platelets
T1 sequence (P25116 whole entry): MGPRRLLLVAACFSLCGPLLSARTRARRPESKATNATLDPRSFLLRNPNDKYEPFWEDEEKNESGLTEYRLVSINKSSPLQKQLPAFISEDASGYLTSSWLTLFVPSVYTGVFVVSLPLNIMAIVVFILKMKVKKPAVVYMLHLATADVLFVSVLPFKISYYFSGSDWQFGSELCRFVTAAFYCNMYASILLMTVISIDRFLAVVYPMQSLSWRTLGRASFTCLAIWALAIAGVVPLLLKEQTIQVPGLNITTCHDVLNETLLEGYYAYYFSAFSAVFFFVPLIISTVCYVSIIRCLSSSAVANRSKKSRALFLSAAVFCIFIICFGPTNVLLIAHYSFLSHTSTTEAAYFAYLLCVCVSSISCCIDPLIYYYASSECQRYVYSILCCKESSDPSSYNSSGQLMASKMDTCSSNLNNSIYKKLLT

[5] = AUC (0 to 24 hrs) in rat 10 mg/kg, po; type: ADME, organism-based; set-up: time < 24 hr, dose 10 mg/kg, route oral; settings: plasma
[6] = Oral bioavailability in monkey 1 mg/kg; type: ADME, organism-based, Macaca mulatta; settings: rhesus monkey, in vivo
Cytochrome P450 1A2 = target: T2, Cytochrome P450 1A2 (Homo sapiens, UniProt P05177); assay: Inhibition of CYP1A2 in human liver microsomes at 90 uM; type: ADME, Microsome
T2 sequence (P05177 whole entry): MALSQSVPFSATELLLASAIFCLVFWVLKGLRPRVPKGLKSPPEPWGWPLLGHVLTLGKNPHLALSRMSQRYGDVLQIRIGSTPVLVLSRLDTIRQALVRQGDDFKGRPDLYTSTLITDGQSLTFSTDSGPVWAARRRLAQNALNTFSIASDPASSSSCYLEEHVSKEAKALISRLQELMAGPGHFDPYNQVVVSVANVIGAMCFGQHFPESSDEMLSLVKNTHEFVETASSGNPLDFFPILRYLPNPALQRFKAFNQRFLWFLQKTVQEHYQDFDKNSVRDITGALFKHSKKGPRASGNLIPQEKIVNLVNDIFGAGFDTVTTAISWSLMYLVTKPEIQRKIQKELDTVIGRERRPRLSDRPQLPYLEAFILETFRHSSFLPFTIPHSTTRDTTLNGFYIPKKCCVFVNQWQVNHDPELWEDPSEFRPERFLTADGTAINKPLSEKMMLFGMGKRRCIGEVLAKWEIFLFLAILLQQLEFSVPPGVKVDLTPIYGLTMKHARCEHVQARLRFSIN

Plasma [7] = assay: Anticoagulant activity in human plasma assessed as prothrombin time; type: functional, cell-free
Platelet [8] = assay: Ex vivo inhibition of haTRAP-induced platelet aggregation in cynomolgus monkey at 0.1 mg/kg after >24 hrs by impedance aggregometry; type: functional; settings: Macaca fascicularis
[9] = Oral absorption in monkey 1 mg/kg, po; settings: rhesus monkey, in vivo, read-out: Fabs
[10] = Oral bioavailability in rat 10 mg/kg; type: ADME, organism-based; settings: in vivo
Cytochrome P450 3A4 = Cytochrome P450 3A4 (Homo sapiens, UniProt P08684); assay: Inhibition of CYP3A4 in human liver microsomes at 90 uM; type: ADME, Microsome
Chain of Cytochrome P450 3A4 (P08684 whole entry): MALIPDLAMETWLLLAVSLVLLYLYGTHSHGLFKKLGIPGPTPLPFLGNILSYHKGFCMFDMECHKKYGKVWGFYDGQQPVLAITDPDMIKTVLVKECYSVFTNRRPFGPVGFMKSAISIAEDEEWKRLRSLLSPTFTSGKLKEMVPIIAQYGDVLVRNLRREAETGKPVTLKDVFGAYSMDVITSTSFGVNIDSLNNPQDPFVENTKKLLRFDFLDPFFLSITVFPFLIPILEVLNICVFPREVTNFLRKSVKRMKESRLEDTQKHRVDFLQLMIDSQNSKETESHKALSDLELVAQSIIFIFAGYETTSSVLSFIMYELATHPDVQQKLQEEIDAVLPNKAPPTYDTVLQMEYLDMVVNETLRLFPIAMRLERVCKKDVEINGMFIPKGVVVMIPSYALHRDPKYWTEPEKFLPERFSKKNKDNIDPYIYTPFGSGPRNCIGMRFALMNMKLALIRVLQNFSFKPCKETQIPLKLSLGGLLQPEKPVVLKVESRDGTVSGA

Platelet [11] = assay: Ex vivo inhibition of haTRAP-induced platelet aggregation in cynomolgus monkey at 0.5 mg/kg, po after 24 hrs by impedance aggregometry; type: functional; settings: Macaca fascicularis
[12] = Cmax in rat 10 mg/kg, po; type: ADME, organism-based; set-up: dose 10 mg/kg, route oral; settings: in vivo
Platelet [13] = assay: Ex vivo inhibition of haTRAP-induced platelet aggregation in cynomolgus monkey at 0.3 mg/kg, po after 24 hrs by impedance aggregometry; type: functional; settings: Macaca fascicularis
[14] = AUC (0 to 24 hrs) in cynomolgus monkey at 0.1 mg/kg, po after >24 hrs; type: ADME, organism-based, Macaca fascicularis; set-up: time < 24 hr, dose 0.1 mg/kg, route oral; settings: plasma
[15] = target: T3, Proteinase-activated receptor 4 (Homo sapiens) (UniProt Q96RI0); assay: Activity at PAR4
T3 sequence (whole entry): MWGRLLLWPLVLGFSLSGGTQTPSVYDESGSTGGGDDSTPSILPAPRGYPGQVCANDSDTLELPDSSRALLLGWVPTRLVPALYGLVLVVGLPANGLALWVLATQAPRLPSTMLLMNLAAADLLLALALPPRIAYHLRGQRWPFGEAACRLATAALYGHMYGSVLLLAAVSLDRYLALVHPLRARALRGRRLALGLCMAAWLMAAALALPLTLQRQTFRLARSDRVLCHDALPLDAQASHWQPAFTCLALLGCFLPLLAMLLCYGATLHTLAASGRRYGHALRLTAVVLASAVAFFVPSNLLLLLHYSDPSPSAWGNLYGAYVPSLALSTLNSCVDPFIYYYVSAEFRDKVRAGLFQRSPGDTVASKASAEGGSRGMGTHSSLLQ

[16] = Half life in rat 10 mg/kg, iv; type: ADME, organism-based; set-up: dose 10 mg/kg, route intravenous; settings: in vivo
[17] = Oral absorption in rat 10 mg/kg, po; type: ADME, organism-based; set-up: dose 10 mg/kg, route oral; settings: in vivo, read-out: Fabs
Cytochrome P450 2C19 = Cytochrome P450 2C19 (Homo sapiens, UniProt P33261); assay: Inhibition of CYP2C19 in human liver microsomes at 90 uM; type: ADME, Microsome
Chain of Cytochrome P450 2C19 (P33261 whole entry): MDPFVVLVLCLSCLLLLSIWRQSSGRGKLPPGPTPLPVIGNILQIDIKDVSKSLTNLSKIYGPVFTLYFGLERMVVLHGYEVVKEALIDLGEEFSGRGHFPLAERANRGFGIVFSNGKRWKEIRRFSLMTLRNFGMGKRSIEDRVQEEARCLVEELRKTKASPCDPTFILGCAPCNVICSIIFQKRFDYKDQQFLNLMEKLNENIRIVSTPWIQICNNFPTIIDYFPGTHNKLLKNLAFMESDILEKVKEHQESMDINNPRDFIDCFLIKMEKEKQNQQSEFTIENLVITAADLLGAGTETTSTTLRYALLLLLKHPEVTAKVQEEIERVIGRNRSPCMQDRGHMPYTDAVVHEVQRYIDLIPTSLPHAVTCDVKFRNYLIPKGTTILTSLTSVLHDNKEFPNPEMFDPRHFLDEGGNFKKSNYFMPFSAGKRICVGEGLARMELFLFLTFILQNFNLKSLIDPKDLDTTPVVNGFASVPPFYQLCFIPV

[18] = AUC (0 to 24 hrs) in monkey 1 mg/kg, po; type: ADME, organism-based, Macaca mulatta; set-up: time < 24 hr, dose 1 mg/kg, route oral; settings: rhesus monkey, plasma
[19] = Half life in monkey 1 mg/kg, iv; type: ADME, organism-based, Macaca mulatta; set-up: dose 1 mg/kg, route intravenous; settings: rhesus monkey, in vivo
Cytochrome P450 2C9 = Cytochrome P450 2C9 (Homo sapiens, UniProt P11712); assay: Inhibition of CYP2C9 in human liver microsomes at 90 uM; type: ADME, Microsome
Chain of Cytochrome P450 2C9 (P11712 whole entry): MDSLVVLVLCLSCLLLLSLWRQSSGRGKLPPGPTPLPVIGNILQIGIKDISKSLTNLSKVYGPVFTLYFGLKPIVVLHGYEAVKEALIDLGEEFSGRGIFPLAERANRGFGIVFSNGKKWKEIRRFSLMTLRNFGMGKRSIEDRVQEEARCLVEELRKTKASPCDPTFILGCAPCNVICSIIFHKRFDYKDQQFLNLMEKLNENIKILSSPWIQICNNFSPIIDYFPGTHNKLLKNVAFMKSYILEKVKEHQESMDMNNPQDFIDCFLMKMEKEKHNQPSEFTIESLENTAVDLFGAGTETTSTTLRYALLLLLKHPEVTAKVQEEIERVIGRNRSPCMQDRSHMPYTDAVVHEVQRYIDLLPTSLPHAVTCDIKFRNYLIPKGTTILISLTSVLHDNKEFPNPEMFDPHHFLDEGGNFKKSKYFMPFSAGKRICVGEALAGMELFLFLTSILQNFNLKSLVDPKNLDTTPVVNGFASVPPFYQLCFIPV

[20] = Tmax in monkey 1 mg/kg, po; type: ADME, organism-based, Macaca mulatta; set-up: dose 1 mg/kg, route oral; settings: rhesus monkey, in vivo
[21] = target: T1, Proteinase-activated receptor 1; assay: Antagonist activity at human PAR1 in HCASMC assessed as inhibition of thrombin-induced calcium efflux; type: functional
[22] = Inhibition of […] in human liver microsomes at 90 uM; type: ADME, Microsome
Plasma [23] = assay: Anticoagulant activity in human plasma assessed as activated partial thromboplastin time; type: functional, cell-free
[24] = Cmax in monkey 1 mg/kg, po; type: ADME, organism-based, Macaca mulatta; set-up: dose 1 mg/kg, route oral; settings: rhesus monkey, in vivo
[25] = target: T4, Proteinase-activated receptor 3 (Homo sapiens) (UniProt O00254); assay: Binding affinity to PAR3
T4 sequence (whole entry): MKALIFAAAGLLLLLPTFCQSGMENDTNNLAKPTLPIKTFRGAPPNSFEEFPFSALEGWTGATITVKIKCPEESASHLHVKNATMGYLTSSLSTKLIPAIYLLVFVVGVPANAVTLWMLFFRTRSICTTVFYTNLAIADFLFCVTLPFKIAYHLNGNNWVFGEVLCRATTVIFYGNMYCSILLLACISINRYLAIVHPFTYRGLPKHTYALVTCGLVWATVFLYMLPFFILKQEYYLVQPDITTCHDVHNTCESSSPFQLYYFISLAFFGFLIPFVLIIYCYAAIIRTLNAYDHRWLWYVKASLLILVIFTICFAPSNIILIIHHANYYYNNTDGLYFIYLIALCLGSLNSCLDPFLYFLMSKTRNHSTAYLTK

[26] = Tmax in rat 10 mg/kg, po; type: ADME, organism-based; set-up: dose 10 mg/kg, route oral; settings: in vivo
[27] = target: Proteinase-activated receptor 2 (Homo sapiens) (UniProt P55085); assay: Binding affinity to PAR2
Chain of Proteinase-activated receptor 2 (Homo sapiens) (P55085 whole entry): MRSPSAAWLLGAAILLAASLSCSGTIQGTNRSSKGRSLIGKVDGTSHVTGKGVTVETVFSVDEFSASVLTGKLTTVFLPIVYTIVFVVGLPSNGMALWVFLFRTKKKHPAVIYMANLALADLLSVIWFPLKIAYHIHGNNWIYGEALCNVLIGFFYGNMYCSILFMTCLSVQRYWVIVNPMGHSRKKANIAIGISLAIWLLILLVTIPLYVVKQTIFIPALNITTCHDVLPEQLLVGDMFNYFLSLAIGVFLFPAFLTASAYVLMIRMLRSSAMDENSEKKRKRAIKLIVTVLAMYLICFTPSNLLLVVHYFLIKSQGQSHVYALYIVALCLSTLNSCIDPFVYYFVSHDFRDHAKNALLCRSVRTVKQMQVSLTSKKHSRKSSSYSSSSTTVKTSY

[28] = Cmax in cynomolgus monkey at 0.1 mg/kg, po after >24 hrs; type: ADME, organism-based, Macaca fascicularis; set-up: dose 0.1 mg/kg, route oral; settings: in vivo

`CCOC(=O)N[C@@H]1CC[C@@H]2[C@@H](C1)C[C@H]1C(=O)O[C@H](C)[C@H]1[C@H]2/C=C/c1ccc(-c2cccc(C(F)(F)F)c2)cn1` showed an inhibition in vivo at 1 mg/kg (Platelet [1]) of 100%, an AUC(0-t) at 24 h [2] of 5.03 µM·h and a Cmax [3] of 330 nM. For the same molecule, the Ki [4] was 13 nM.
With `CCOC(=O)N[C@@H]1CC[C@@H]2[C@@H](C1)C[C@H]1C(=O)O[C@H](C)[C@H]1[C@H]2/C=C/c1ccc(-c2cccc(F)c2)cn1` [VORAPAXAR] the AUC(0-t) at 24 h [5] was 5.3 µM·h, the bioavailability [6] was 86% and the Activity (Cytochrome P450 1A2) was “Not Active”. For the same molecule, the Activity (Plasma [7]) was “inactive”, the inhibition in vivo at 0.1 mg/kg (Platelet [8]) was 100% and the Fa [9] was 82%. The bioavailability [10] was 33%, the Activity (Cytochrome P450 3A4) was “Not Active” and the inhibition in vivo at 0.5 mg/kg (Platelet [11]) was 100%. For the same molecule, the Cmax [12] was 670 nM, the inhibition in vivo at 0.3 mg/kg (Platelet [13]) was 100% and the AUC(0-t) at 24 h [14] was 0.2 µM·h. The Activity [15] was “inactive”, the half-life [16] was 5.1 h and the Fa [17] was 68%. For the same molecule, the Activity (Cytochrome P450 2C19) was “Not Active”, the AUC(0-t) at 24 h [18] was 10 µM·h and the half-life [19] was 13 h. For the same molecule, the Activity (Cytochrome P450 2C9) was “Not Active”, the Tmax [20] was 1 h and the Ki [21] was 1.1 nM. For the same molecule, the Activity [22] was “Not Active”, the Activity (Plasma [23]) was “inactive” and the Cmax [24] was 1300 nM. For the same molecule, the Ki [4] was 8.1 nM, the Activity [25] was “inactive” and the Tmax [26] was 3 h. For the same molecule, the Activity [27] was “inactive” and the Cmax [28] was 18 nM.
